Results taken from EP4043466B1, “PRC2 INHIBITORS” (Mirati Therapeutics, Inc., priority 2018, dated 2019).

Columns and labels:
[1] = target: purified human, His-tagged PRC2 complex (Homo sapiens, UniProt O75530+Q15910); test: Hot Spot HMT assay: inhibition of PRC2 enzymatic activity (transfer of tritiated methyl from SAM to core histone, filter binding); assay type: biochemical; conditions: Inhibition of PRC2-mediated enzymatic activity; 10 nM PRC2 complex, 0.05 mg/ml core histone H3, 1 uM 3H-SAM, 1 hr at 30°C
Chain of purified human, His-tagged PRC2 complex (Q15910 whole entry): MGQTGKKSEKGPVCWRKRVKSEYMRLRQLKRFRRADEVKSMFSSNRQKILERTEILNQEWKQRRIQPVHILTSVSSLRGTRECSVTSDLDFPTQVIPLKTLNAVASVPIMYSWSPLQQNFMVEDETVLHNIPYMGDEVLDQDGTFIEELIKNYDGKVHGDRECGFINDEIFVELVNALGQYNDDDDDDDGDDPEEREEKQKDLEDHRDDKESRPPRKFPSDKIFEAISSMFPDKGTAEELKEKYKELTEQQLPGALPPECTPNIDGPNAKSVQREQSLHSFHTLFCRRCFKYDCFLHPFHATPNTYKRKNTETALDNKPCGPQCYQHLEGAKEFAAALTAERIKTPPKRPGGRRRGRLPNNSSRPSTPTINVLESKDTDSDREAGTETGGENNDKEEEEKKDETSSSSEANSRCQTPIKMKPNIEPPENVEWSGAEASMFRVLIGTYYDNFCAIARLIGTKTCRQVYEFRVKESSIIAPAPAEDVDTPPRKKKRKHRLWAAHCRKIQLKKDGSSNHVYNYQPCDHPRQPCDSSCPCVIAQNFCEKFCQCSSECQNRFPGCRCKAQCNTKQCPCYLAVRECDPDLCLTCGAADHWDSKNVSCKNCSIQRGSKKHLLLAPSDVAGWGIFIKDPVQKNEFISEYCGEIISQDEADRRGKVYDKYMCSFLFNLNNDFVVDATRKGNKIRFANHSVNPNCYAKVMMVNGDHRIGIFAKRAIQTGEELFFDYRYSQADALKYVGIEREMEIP
Chain of purified human, His-tagged PRC2 complex (O75530 whole entry): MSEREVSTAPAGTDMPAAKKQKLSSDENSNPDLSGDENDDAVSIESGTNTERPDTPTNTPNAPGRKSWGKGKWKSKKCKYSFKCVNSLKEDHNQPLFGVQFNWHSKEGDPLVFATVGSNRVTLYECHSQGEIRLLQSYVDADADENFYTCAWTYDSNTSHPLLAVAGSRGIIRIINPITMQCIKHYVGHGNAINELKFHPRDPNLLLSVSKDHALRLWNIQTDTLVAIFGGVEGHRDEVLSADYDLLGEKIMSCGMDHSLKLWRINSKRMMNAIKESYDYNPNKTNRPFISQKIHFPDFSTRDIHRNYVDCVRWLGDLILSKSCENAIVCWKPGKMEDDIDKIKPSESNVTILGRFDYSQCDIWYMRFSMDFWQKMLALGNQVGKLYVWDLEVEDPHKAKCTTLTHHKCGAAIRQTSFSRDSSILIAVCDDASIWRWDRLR
Chain of purified human, His-tagged PRC2 complex (Q15022 whole entry partner): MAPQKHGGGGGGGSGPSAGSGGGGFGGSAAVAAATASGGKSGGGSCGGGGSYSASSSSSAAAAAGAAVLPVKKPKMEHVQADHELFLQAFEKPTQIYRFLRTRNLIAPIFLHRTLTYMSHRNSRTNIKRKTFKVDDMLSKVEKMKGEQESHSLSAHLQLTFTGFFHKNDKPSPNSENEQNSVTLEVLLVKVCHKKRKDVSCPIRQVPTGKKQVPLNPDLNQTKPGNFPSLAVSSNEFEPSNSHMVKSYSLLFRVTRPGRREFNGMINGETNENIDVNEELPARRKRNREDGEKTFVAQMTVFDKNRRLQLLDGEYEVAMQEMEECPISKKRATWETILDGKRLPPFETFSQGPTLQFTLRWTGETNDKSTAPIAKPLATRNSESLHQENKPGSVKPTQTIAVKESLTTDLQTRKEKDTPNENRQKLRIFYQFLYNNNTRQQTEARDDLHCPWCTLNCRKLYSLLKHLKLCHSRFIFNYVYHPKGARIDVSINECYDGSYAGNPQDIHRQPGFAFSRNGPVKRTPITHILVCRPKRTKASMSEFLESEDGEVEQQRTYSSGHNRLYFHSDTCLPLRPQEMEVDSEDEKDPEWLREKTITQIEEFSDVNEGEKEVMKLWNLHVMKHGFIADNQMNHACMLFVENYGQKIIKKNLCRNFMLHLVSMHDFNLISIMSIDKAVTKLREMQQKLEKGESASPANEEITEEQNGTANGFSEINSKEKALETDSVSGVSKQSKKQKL
Chain of purified human, His-tagged PRC2 complex (Q6ZN18 whole entry partner): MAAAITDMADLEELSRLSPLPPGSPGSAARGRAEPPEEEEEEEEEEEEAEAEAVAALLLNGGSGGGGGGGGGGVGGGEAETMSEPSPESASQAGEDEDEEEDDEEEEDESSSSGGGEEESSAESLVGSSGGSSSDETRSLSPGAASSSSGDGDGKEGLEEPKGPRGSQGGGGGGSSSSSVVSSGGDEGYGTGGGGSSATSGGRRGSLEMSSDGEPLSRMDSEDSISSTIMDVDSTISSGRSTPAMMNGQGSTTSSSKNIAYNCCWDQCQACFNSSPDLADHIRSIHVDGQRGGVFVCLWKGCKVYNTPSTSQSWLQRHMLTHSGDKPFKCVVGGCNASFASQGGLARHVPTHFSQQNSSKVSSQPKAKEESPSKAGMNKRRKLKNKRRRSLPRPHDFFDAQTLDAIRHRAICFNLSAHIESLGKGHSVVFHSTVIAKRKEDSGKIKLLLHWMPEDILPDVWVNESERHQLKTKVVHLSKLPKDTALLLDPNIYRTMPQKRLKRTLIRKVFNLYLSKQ
Chain of purified human, His-tagged PRC2 complex (Q09028 whole entry partner): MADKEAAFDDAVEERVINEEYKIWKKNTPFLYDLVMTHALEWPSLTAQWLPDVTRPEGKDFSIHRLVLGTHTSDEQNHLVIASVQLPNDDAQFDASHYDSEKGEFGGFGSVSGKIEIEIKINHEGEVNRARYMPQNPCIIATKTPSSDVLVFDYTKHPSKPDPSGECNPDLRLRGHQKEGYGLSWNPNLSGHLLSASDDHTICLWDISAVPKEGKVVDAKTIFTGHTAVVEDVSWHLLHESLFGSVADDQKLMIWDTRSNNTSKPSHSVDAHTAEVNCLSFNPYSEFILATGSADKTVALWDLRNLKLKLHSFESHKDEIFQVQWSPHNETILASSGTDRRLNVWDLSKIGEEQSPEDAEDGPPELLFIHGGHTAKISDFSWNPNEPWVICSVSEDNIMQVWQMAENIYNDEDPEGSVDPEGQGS
In short: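 Serial compound dilutions starting at 1.0 µM were pre-incubated 20 min at 30°C with 10 nM complex (His-EZH2, Flag-EED, His-SUZ12, His-AEBP2, His-RbAp48) and 0.05 mg/ml core H3. Reaction ran 1 hr at 30°C after adding 1 uM [3H]-SAM; scintillation counting followed filtration.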

[2] = system: Karpas 422 cells; test: Karpas 422 cell viability, CTG (Cell Titre Glo) assay; assay type: cell-based, human; conditions: Homo sapiens; Inhibition of proliferation of Karpas 422 cells (EZH2 Y641N); viability measured Day 4, Day 7 or Day 11, time point of the tabulated values not stated
In short: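 CellTiter-Glo viability IC50s taken at Day 4, Day 7 and Day 11 of continuous compound exposure (3-fold series, 10µM top, 1.5nM lowest) in RPMI/20% FBS at 37 °C. Y641N-mutant EZH2 lymphoma line seeded at 1000 cells per well; medium and compound replaced on Day 7 for Day 11 read.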

[3] = system: PRC2-mediated histone H3 methylation; test: Tri-Methyl Histone H3 (Lys 27) Sandwich ELISA in Pfeiffer cells: inhibition of PRC2-mediated histone H3 methylation; assay type: cell-based, human; conditions: Homo sapiens; Inhibition of EZH2-mediated histone H3 trimethylation; Pfeiffer cells (EZH2 A677G), 96 hours incubation
Source text: The Pfeiffer cell line was established from a […] from a patient having metastatic diffuse large B-cell lymphoma (DLBCL). This cell line expresses a mutant form of the EZH2 enzyme (A677G) that results in enhanced EZH2 activity leading to increased methylation of histone H3 Lys27. Increased trimethylation of histone H3 Lys27 is believed to be implicated in tumorgenesis and poor clinical prognosis in lymphomas (McCabe et al., (2012) Nature 492:108-112).
Inhibition of PRC2-mediated histone H3 methylation by compounds of Formula (I) was measured by ELISA using a Tri-Methyl Histone H3 (Lys 27) Sandwich ELISA Kit (Cell Signaling Tech #7866C) in accordance with the manufacturer's instructions. Briefly, Pfeiffer cells were cultured in RPMI medium supplemented with 10% fetal bovine serum and 1% penicillin and 1% streptomycin in 96 well culture plates at 37°C to a density of 8000 cells/90µl/well and the cells were harvested. A series of 3-fold serial dilutions of each test compound of Formula (I) were prepared in RPMI medium and added to the cells at final concentrations ranging from 1µM to 0.15 nM. The plates were incubated at 37°C for 96 hours.
After incubation, the cells were pelleted by centrifugation in a pre-cooled 4°C rotor at 1, 100 rpm for 10 min and the supernatant was removed by aspiration. The cell pellet was resuspended in 55µl of Lysis Buffer (0.4M HCl) and incubated on ice with periodic shaking for 30 minutes. The lysed cells were subjected to centrifugation at 4, 200 rpm for 10 min at 4°C and the supernatant containing acid-soluble proteins was collected and the remainder discarded. The acid-soluble proteins were brought to a neutral pH by the addition of 20 µl of Neutralization Buffer (1 M Sodium phosphate, dibasic (pH 12.5), 2.5 mM DTT and 1 mM PMSF) and the neutralized lysates were analyzed by ELISA.
A 65 µl aliquot of each cell lysate was added to a well of a microwell strip, the microwells were sealed using tape and incubated either at 37°C for two hours or at 4°C overnight. After incubation, the tape was removed at the microwells were washed four times using 200 µl of 1X Wash Buffer. To each washed microwell, a 100 µl aliquot of an antitrimethyl histone H3 Lys27 Detection Antibody solution was added and the microwells were incubated at 37°C for one hour. The Detection Antibody solution was removed by aspiration and the wells were washed four times each using 200 µl of 1X Wash Buffer.
A 100 µl aliquot of an HRP-linked secondary antibody was added to each well, the wells were sealed with tape and incubated at 37°C for 30 min. The HRP-linked secondary antibody solution was removed by aspiration and the wells were washed four times using 200 µl of 1X Wash Buffer. A 100 µl aliquot of a TMB substrate was added to each well, the wells were sealed with tape and incubated at 37°C for 10 min or 25°C for 30 min. The reaction was stopped by the addition of 100 µl aliquot of a STOP solution and the plate was shaken briefly. The degree of histone H3 trimethylation was determined using a spectrophotometric readout by measuring the absorbance at 450 nm and then calculating the amount of trimethylated histone H3. A = ≤100 nM; B = >100 nM - ≤500 nM; C = >500 nM and N.D. = not determined.

Row | SMILES | IC50 [1] [nM] | IC50 [2] [nM] | IC50 [3] [nM]
1 | CN1CCc2cc(-c3cnc(NCc4c(F)ccc5c4CCO5)n4cc(C#N)nc34)ccc2C1 [Example 159, 5-(((5-fluoro-2,3-dihydrobenzofuran-4-yl)methyl)amino)-8-(2-methyl-1,2,3,4-tetrahydroisoquinolin-6-yl)imidazo[1,2-c]pyrimidine-2-carbonitrile] | 100 to 500 | ≤ 250 | ≤ 100
2 | COC(=O)c1ccc(-c2cnc(NCc3c(F)ccc4c3CCO4)n3cc(C#N)nc23)cn1 [Example 166, methyl 5-(2-cyano-5-(((5-fluoro-2,3-dihydrobenzofuran-4-yl)methyl)amino)imidazo[1,2-c]pyrimidin-8-yl)picolinate] | < 100 | 250 to 500 | > 500
3 | Cc1ccc(-c2cnc(NCc3c(F)ccc4c3CCO4)n3cc(C#N)nc23)cc1 [Example 175, 5-(((5-fluoro-2,3-dihydrobenzofuran-4-yl)methyl)amino)-8-(p-tolyl)imidazo[1,2-c]pyrimidine-2-carbonitrile] | 100 to 500 | 250 to 500 | > 500
4 | Cc1c(-c2cnc(NCc3c(F)ccc4c3CCO4)n3cc(C#N)nc23)ccc(CN(C)C)c1F [Example 85, 8-(4-((dimethylamino)methyl)-3-fluoro-2-methylphenyl)-5-(((5-fluoro-2,3-dihydrobenzofuran-4-yl)methyl)amino)imidazo[1,2-c]pyrimidine-2-carbonitrile] | < 100 | ≤ 250 | ≤ 100
5 | N#Cc1cn2c(NCc3c(F)ccc4c3CCO4)ncc(-c3ccc(C(=O)O)cc3)c2n1 [Example 183, 4-(2-cyano-5-(((5-fluoro-2,3-dihydrobenzofuran-4-yl)methyl)amino)imidazo[1,2-c]pyrimidin-8-yl)benzoic acid] | < 100 | > 500 | > 500
6 | [2H]C([2H])(c1ccc(-c2cnc(NCc3c(F)ccc4c3CCO4)n3cc(C#N)nc23)c(C)c1)N(C)C [Example 173, 8-(4-((dimethylamino)methyl-d2)-2-methylphenyl)-5-(((5-fluoro-2,3-dihydrobenzofuran-4-yl)methyl)amino)imidazo[1,2-c]pyrimidine-2-carbonitrile] | < 100 | ≤ 250 | ≤ 100
7 | Cc1cc(S(=O)(=O)N(C)C)ccc1-c1cnc(NCc2c(F)ccc3c2CCO3)n2cc(C#N)nc12 [Example 48, 4-(2-cyano-5-(((5-fluoro-2,3-dihydrobenzofuran-4-yl)methyl)amino)imidazo[1,2-c]pyrimidin-8-yl)-N,N,3-trimethylbenzenesulfonamide] | < 100 | ≤ 250 | 100 to 500
8 | Cc1cc(CN(C)C)ncc1-c1cnc(NCc2c(F)ccc3c2CCO3)n2cc(C#N)nc12 [Example 195, 8-(6-((dimethylamino)methyl)-4-methylpyridin-3-yl)-5-(((5-fluoro-2,3-dihydrobenzofuran-4-yl)methyl)amino)imidazo[1,2-c]pyrimidine-2-carbonitrile] | < 100 | ≤ 250 | ≤ 100
9 | COC(=O)c1ccc(-c2cnc(NCc3c(F)ccc4c3CCO4)n3cc(C#N)nc23)cc1 [Example 167, methyl 4-(2-cyano-5-(((5-fluoro-2,3-dihydrobenzofuran-4-yl)methyl)amino)imidazo[1,2-c]pyrimidin-8-yl)benzoate] | 100 to 500 | ≤ 250 | > 500
10 | COCCOc1ncc(-c2cnc(NCc3c(F)ccc4c3CCO4)n3cc(C#N)nc23)cn1 [Example 191, 5-(((5-fluoro-2,3-dihydrobenzofuran-4-yl)methyl)amino)-8-(2-(2-methoxyethoxy)pyrimidin-5-yl)imidazo[1,2-c]pyrimidine-2-carbonitrile] | 100 to 500 | 250 to 500 | 100 to 500
11 | N#Cc1cn2c(NCc3c(F)ccc4c3CCO4)ncc(-c3ccc(CN4CCOCC4)cc3)c2n1 [Example 75, 5-(((5-fluoro-2,3-dihydrobenzofuran-4-yl)methyl)amino)-8-(4-(morpholinomethyl)phenyl)imidazo[1,2-c]pyrimidine-2-carbonitrile] | < 100 | ≤ 250 | 100 to 500
